# Laboratory results: US20250032490A1, “THERAPEUTIC REGIMENS FOR TREATMENT OF PAROXYSMAL NOCTURNAL HEMOGLOBINURIA” (Achillion Pharmaceuticals, Inc., priority 2017, published 2025)
# Tested on: C3 fragment deposition
# Assay: Phase 2 study in PNH subjects: C3 fragment deposition percentage
# Type: in vivo, human
# Description: C3 fragment deposition is measured using blood by flow cytometry that would be known to those of skill in the art. In a typical protocol, a blood sample is collected from eculizumab-treated PNH patients or healthy individuals. Erythrocytes are harvested by centrifugation, washed with PBS several times until the supernatant remains clear. C3 fragment deposition on the PNH erythrocytes membrane is measured by flow cytometry using FITC-conjugated anti-C3c, PE conjugated anti-CD47 and APC-conjugated anti-CD59 following dilution of reaction mixtures in FC buffer. Intact and fragmented PNH erythrocytes are identified by anti-CD47 (positive) and anti-CD59 (negative) staining C3 fragment deposition is assessed by anti-C3c staining.
# The starting dose of compound 1 is based upon group assignment. The Group 1 dose is 100mg three times daily (TID). The Group 2 dose is 150 mg TID. The Group 3 dose is 200 mg TID. The Group 4 dose will receive the optimal dose determined from Groups 1-3.
# All doses are taken approximately 15-30 minutes after completion of a meal or snack.
# This will be followed by a long-term extension phase.
# 2 subjects in the first dose level of 100 mg TID have been completed and data collected through 4 weeks. Data collected include lactate dehydrogenase (LDH) levels, hemoglobin levels, reticulocytes, PNH red blood cells (Type III) percentage, C3 Fragment Deposition percentage, and bilirubin levels and their changes from baseline.
# Measurement of C3 fragment deposition percentage is a pharmacodynamic marker that is measured by flow cytometry of subject plasma samples collected on Day 1, Week 2, and Week 4 (FIGS. 17A & 17B and Table 19). Uncontrolled C3 activation due to the absence of CD55 on red blood cells may result in opsonization of red blood cells, leading to clinically meaningful extravascular hemolysis.
smiles,measurement,setting,value
"CC(=O)c1nn(CC(=O)N2C[C@H](F)C[C@H]2C(=O)Nc2cccc(Br)n2)c2ccc(-c3cnc(C)nc3)cc12 [Compound 1, (2S,4R)-1-(2-(3-acetyl-5-(2-methylpyrimidin-5-yl)-1H-indazol-1-yl)acetyl)-N-(6-bromopyridin-2-yl)-4-fluoropyrrolidine-2-carboxamide]",C3 FRAGMENT DEPOSITION (%) CFB (change from baseline),"PNH subject 003-001, DAY 1",0.00%
same,C3 FRAGMENT DEPOSITION (%) Observed,"PNH subject 003-001, DAY 1 (baseline), flow cytometry",2.60%
same,C3 FRAGMENT DEPOSITION (%) CFB (change from baseline),"PNH subject 003-001, WEEK 2",−0.50%
same,C3 FRAGMENT DEPOSITION (%) Observed,"PNH subject 003-001, WEEK 2, flow cytometry",2.10%
same,C3 FRAGMENT DEPOSITION (%) CFB (change from baseline),"PNH subject 003-001, WEEK 4",−0.50%
same,C3 FRAGMENT DEPOSITION (%) Observed,"PNH subject 003-001, WEEK 4, flow cytometry",2.10%
same,C3 FRAGMENT DEPOSITION (%) CFB (change from baseline),"PNH subject 003-002, DAY 1",0.00%
same,C3 FRAGMENT DEPOSITION (%) Observed,"PNH subject 003-002, DAY 1 (baseline), flow cytometry",4.20%
same,C3 FRAGMENT DEPOSITION (%) CFB (change from baseline),"PNH subject 003-002, WEEK 2",−3.10%
same,C3 FRAGMENT DEPOSITION (%) Observed,"PNH subject 003-002, WEEK 2, flow cytometry",1.10%
same,C3 FRAGMENT DEPOSITION (%) CFB (change from baseline),"PNH subject 003-002, WEEK 4",−3.10%
same,C3 FRAGMENT DEPOSITION (%) Observed,"PNH subject 003-002, WEEK 4, flow cytometry",1.10%
